Assay results as given in patent publication US20220348565A1, “PHARMACEUTICAL COMPOUNDS” (SENTINEL ONCOLOGY LIMITED, priority 2019, published 2022).

What was measured:
Assay in all cases: DiscoverX KinomeScreen kinase selectivity competition binding assay
[1] = molecular target: T1, panel of ninety-seven kinases (Homo sapiens, UniProt P36507); settings: MAP2K2; read-out: % Ctrl @ 3 μM
T1 construct: purchased DiscoverX; host or cells: T7 phage in E. coli (BL21-derived) for most kinases; HEK-293 for the rest
Method: (§1) Atropisomer A-2 has been tested for off-target activity against a panel of ninety-seven kinases distributed across the kinome at a concentration of 3 μM using the DiscoverX KinomeScreen assay. The DiscoverX KinomeScreen assay is a site-directed competition binding assay which measures the binding affinity of a compound to a kinase, by use of a solid supported control compound which can bind or capture the kinases in solution. In the absence of a kinase-inhibitor test compound, all of the kinase will bind to the solid support. If a kinase-inhibitor test compound is added to the assay mix, the amount of kinase binding to the solid support will be reduced, the extent of reduction being dependent on the potency of the test compound as a kinase inhibitor. […] For most assays, kinase-tagged T7 phage strains were grown in parallel in 24-well blocks in an E. coli host derived from the BL21 strain. E. coli were grown to log-phase and infected with T7 phage from a frozen stock (multiplicity of infection=0.4) and incubated with shaking at 32° C. until lysis (90-150 minutes). The lysates were centrifuged (6,000×g) and filtered (0.2 μm) to remove cell debris. The remaining kinases were produced in HEK-293 cells and subsequently tagged with DNA for qPCR detection. Streptavidin-coated magnetic beads were treated with biotinylated small molecule ligands for 30 minutes at room temperature to generate affinity resins for kinase assays. The liganded beads were blocked with excess biotin and washed with blocking buffer (SeaBlock (Pierce), 1% BSA, 0.05% Tween 20, 1 mM DTT) to remove unbound ligand and to reduce non-specific phage binding. […] Test compounds were prepared as 40× stocks in 100% DMSO and directly diluted into the assay. All reactions were performed in polypropylene 384-well plates in a final volume of 0.02 ml. […] The beads were then re-suspended in elution buffer (1×PBS, 0.05% Tween 20, 0.5 μM non-biotinylated affinity ligand) and incubated at room temperature with shaking for 30 minutes. The kinase concentration in the eluates was measured by qPCR. Compounds that bind the kinase active site and directly (sterically) or indirectly (allosterically) prevent kinase binding to the immobilized ligand, will reduce the amount of kinase captured on the solid support. […] The strength of binding of the test molecule to the kinase can be expressed as the percent control (% Ctrl) The compound(s) were screened at 3000 nM concentration, and results for primary screen binding interactions are reported as ‘% Ctrl’, where lower numbers indicate stronger hits in the matrix on the following page(s). [formula] • negative control=DMSO (100% Ctrl) • positive control=control compound (0% Ctrl)

[2] = molecular target: T2, panel of ninety-seven kinases (Homo sapiens, UniProt Q05397); settings: PTK2; read-out: % Ctrl @ 3 μM
T2 construct: purchased DiscoverX; host or cells: T7 phage in E. coli (BL21-derived) for most kinases; HEK-293 for the rest
T2 sequence (Q05397 whole entry): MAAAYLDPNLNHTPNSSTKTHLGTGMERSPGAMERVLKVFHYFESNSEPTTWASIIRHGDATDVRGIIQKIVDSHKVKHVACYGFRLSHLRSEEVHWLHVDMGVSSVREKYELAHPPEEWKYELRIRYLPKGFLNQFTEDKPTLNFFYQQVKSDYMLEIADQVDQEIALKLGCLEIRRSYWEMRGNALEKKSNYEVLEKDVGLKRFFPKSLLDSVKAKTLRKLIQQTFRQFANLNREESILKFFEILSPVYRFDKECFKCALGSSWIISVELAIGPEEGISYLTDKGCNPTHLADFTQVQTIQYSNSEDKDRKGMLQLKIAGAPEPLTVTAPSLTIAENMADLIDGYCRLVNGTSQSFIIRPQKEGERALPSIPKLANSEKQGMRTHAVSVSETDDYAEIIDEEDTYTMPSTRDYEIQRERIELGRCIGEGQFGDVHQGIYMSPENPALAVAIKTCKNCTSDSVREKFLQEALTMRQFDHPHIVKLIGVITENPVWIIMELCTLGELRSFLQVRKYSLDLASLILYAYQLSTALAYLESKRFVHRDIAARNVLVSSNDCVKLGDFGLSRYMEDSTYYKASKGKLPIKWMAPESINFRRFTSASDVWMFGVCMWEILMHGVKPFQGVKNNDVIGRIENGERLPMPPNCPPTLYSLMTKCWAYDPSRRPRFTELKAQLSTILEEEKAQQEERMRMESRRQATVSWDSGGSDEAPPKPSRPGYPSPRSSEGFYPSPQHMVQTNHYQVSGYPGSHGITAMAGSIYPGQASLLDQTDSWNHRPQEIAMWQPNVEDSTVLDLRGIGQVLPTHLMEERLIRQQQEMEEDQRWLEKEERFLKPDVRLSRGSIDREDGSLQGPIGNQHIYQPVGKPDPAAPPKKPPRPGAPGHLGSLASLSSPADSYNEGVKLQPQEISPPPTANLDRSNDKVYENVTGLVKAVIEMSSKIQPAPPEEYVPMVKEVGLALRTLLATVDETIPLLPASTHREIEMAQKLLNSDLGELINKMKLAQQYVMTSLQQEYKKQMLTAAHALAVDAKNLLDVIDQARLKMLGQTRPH
Method: as §1

[3] = molecular target: T3, panel of ninety-seven kinases (Homo sapiens, UniProt P36897); settings: TGFBR1; read-out: % Ctrl @ 3 μM
T3 construct: purchased DiscoverX; host or cells: T7 phage in E. coli (BL21-derived) for most kinases; HEK-293 for the rest
T3 sequence (P36897 34-503): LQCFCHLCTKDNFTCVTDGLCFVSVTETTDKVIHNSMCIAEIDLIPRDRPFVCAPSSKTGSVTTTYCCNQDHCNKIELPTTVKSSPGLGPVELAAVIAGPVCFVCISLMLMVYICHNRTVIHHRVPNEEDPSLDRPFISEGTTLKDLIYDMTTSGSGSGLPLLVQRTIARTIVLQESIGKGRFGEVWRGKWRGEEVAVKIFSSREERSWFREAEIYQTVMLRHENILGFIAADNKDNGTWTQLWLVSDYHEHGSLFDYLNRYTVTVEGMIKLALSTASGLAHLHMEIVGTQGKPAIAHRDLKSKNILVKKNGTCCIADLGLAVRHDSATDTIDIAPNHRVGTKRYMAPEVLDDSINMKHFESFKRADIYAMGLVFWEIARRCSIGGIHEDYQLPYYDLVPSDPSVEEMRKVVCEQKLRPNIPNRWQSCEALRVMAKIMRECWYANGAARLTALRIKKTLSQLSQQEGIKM
Method: as §1

[4] = molecular target: T4, panel of ninety-seven kinases (Homo sapiens, UniProt P51812); settings: RPS6KA3; read-out: % Ctrl @ 3 μM
T4 construct: purchased DiscoverX; host or cells: T7 phage in E. coli (BL21-derived) for most kinases; HEK-293 for the rest
Method: as §1

[5] = molecular target: T5, panel of ninety-seven kinases (Homo sapiens, UniProt P43403); settings: ZAP70; read-out: % Ctrl @ 3 μM
T5 construct: purchased DiscoverX; host or cells: T7 phage in E. coli (BL21-derived) for most kinases; HEK-293 for the rest
T5 sequence (P43403 whole entry): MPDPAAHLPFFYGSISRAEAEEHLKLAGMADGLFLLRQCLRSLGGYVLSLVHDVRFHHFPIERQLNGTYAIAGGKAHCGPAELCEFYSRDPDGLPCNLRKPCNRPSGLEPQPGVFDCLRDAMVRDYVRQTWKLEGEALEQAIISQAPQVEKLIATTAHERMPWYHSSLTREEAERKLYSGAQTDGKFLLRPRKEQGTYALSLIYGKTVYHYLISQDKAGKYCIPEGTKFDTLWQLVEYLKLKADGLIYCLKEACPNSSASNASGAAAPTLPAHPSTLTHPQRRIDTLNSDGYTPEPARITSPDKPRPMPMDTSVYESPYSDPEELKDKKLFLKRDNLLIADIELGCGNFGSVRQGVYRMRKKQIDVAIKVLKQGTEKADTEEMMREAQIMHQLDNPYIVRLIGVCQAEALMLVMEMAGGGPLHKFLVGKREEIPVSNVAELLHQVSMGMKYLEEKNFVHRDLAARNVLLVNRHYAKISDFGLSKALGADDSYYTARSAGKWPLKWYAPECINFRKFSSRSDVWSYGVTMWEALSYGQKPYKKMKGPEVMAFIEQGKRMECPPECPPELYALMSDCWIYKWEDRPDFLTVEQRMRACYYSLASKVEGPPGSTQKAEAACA
Method: as §1

[6] = molecular target: T6, panel of ninety-seven kinases (Homo sapiens, UniProt P07949); settings: RET; read-out: % Ctrl @ 3 μM
T6 construct: purchased DiscoverX; host or cells: T7 phage in E. coli (BL21-derived) for most kinases; HEK-293 for the rest
Method: as §1

[7] = molecular target: T7, panel of ninety-seven kinases (Homo sapiens, UniProt Q15831); settings: STK11; read-out: % Ctrl @ 3 μM
T7 construct: purchased DiscoverX; host or cells: T7 phage in E. coli (BL21-derived) for most kinases; HEK-293 for the rest
Method: as §1

[8] = molecular target: T8, panel of ninety-seven kinases (Homo sapiens, UniProt Q86UX6); settings: STK32C; read-out: % Ctrl @ 3 μM
T8 construct: purchased DiscoverX; host or cells: T7 phage in E. coli (BL21-derived) for most kinases; HEK-293 for the rest
T8 sequence (Q86UX6 whole entry): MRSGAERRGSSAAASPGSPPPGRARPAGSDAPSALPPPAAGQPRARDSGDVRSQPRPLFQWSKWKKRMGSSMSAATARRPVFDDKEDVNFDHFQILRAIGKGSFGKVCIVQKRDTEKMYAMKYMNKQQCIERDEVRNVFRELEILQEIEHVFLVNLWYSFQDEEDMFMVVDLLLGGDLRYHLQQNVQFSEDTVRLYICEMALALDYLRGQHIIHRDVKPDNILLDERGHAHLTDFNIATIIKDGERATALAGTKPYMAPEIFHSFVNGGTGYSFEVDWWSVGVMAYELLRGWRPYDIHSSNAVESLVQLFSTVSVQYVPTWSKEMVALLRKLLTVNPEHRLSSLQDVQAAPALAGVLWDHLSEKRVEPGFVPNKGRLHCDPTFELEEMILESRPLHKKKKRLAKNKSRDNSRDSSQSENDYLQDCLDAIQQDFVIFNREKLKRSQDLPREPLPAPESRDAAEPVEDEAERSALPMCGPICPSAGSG
Method: as §1

[9] = molecular target: T9, panel of ninety-seven kinases (Homo sapiens, UniProt Q8IYT8); settings: ULK2; read-out: % Ctrl @ 3 μM
T9 construct: purchased DiscoverX; host or cells: T7 phage in E. coli (BL21-derived) for most kinases; HEK-293 for the rest
T9 sequence (Q8IYT8 whole entry): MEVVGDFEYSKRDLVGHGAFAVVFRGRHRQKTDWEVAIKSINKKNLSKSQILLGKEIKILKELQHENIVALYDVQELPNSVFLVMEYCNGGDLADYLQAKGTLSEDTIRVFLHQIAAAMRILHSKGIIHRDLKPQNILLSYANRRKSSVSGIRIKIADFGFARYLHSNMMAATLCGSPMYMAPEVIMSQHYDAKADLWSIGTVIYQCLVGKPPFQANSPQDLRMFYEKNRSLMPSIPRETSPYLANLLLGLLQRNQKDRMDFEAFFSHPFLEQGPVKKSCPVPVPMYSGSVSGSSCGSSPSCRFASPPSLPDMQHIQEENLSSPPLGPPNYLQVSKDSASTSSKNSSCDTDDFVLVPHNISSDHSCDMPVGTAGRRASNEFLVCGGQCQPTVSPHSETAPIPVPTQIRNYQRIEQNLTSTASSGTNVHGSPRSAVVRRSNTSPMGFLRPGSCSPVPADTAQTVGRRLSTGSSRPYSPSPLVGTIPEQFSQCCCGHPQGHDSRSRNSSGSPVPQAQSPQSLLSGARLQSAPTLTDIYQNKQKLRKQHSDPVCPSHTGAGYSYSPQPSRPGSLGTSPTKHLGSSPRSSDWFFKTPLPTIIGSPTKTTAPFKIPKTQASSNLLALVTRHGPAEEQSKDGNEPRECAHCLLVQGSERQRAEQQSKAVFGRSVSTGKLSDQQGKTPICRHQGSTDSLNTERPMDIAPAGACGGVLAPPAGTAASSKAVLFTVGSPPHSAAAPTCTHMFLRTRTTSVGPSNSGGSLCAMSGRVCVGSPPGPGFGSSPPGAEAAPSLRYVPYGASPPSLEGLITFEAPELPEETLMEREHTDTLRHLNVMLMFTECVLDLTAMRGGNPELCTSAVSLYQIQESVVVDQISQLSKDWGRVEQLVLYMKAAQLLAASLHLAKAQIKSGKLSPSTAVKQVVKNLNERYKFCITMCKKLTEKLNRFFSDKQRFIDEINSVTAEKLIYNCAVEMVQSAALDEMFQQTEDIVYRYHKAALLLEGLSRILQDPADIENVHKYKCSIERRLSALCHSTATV
Method: as §1

[10] = molecular target: T10, panel of ninety-seven kinases (Homo sapiens, UniProt Q9UPE1); settings: SRPK3; read-out: % Ctrl @ 3 μM
T10 construct: purchased DiscoverX; host or cells: T7 phage in E. coli (BL21-derived) for most kinases; HEK-293 for the rest
T10 sequence (Q9UPE1 whole entry): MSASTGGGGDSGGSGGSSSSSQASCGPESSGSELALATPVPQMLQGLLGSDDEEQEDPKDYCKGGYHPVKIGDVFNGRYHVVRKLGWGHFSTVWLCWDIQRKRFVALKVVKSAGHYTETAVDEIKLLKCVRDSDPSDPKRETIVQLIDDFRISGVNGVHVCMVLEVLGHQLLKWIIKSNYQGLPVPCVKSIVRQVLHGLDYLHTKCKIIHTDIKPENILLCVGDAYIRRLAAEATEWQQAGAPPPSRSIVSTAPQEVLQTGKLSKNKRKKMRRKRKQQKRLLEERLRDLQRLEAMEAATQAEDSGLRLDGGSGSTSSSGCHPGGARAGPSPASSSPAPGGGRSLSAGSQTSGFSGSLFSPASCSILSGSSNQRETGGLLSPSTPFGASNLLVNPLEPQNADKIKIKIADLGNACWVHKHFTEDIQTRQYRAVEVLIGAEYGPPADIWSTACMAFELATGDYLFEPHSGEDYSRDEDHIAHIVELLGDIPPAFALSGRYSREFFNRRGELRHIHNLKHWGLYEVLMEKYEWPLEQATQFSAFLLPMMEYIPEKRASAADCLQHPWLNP
Method: as §1

[11] = molecular target: T11, panel of ninety-seven kinases (Homo sapiens, UniProt P17612); settings: PRKACA; read-out: % Ctrl @ 3 μM
T11 construct: purchased DiscoverX; host or cells: T7 phage in E. coli (BL21-derived) for most kinases; HEK-293 for the rest
Method: as §1

[12] = molecular target: T12, panel of ninety-seven kinases (Homo sapiens, UniProt P29597); settings: TYK2; read-out: % Ctrl @ 3 μM
T12 construct: purchased DiscoverX; host or cells: T7 phage in E. coli (BL21-derived) for most kinases; HEK-293 for the rest
Method: as §1

[13] = molecular target: T13, panel of ninety-seven kinases (Homo sapiens, UniProt Q15303); settings: ERBB4; read-out: % Ctrl @ 3 μM
T13 construct: purchased DiscoverX; host or cells: T7 phage in E. coli (BL21-derived) for most kinases; HEK-293 for the rest
Method: as §1

[14] = molecular target: T14, panel of ninety-seven kinases (Homo sapiens, UniProt Q9HBH9); settings: MKNK2; read-out: % Ctrl @ 3 μM
T14 construct: purchased DiscoverX; host or cells: T7 phage in E. coli (BL21-derived) for most kinases; HEK-293 for the rest
Method: as §1

[15] = molecular target: T15, panel of ninety-seven kinases (Homo sapiens, UniProt Q9BVS4); settings: RIOK2; read-out: % Ctrl @ 3 μM
T15 construct: purchased DiscoverX; host or cells: T7 phage in E. coli (BL21-derived) for most kinases; HEK-293 for the rest
Method: as §1

[16] = molecular target: T16, panel of ninety-seven kinases (Homo sapiens, UniProt Q86V86); settings: PIM3; read-out: % Ctrl @ 3 μM
T16 construct: purchased DiscoverX; host or cells: T7 phage in E. coli (BL21-derived) for most kinases; HEK-293 for the rest
Method: as §1

[17] = molecular target: T17, panel of ninety-seven kinases (Homo sapiens, UniProt P35968); settings: KDR; read-out: % Ctrl @ 3 μM
T17 construct: purchased DiscoverX; host or cells: T7 phage in E. coli (BL21-derived) for most kinases; HEK-293 for the rest
Method: as §1

[18] = molecular target: T18, panel of ninety-seven kinases (Homo sapiens, UniProt P52333); settings: JAK3; read-out: % Ctrl @ 3 μM
T18 construct: purchased DiscoverX; host or cells: T7 phage in E. coli (BL21-derived) for most kinases; HEK-293 for the rest
Method: as §1

[19] = molecular target: T19, panel of ninety-seven kinases (Homo sapiens, UniProt Q96GD4); settings: AURKB; read-out: % Ctrl @ 3 μM
T19 construct: purchased DiscoverX; host or cells: T7 phage in E. coli (BL21-derived) for most kinases; HEK-293 for the rest
Method: as §1

[20] = molecular target: T20, panel of ninety-seven kinases (Homo sapiens, UniProt P45984); settings: MAPK9; read-out: % Ctrl @ 3 μM
T20 construct: purchased DiscoverX; host or cells: T7 phage in E. coli (BL21-derived) for most kinases; HEK-293 for the rest
Method: as §1

[21] = molecular target: T21, panel of ninety-seven kinases (Homo sapiens, UniProt Q9BUB5); settings: MKNK1; read-out: % Ctrl @ 3 μM
T21 construct: purchased DiscoverX; host or cells: T7 phage in E. coli (BL21-derived) for most kinases; HEK-293 for the rest
T21 sequence (Q9BUB5 whole entry): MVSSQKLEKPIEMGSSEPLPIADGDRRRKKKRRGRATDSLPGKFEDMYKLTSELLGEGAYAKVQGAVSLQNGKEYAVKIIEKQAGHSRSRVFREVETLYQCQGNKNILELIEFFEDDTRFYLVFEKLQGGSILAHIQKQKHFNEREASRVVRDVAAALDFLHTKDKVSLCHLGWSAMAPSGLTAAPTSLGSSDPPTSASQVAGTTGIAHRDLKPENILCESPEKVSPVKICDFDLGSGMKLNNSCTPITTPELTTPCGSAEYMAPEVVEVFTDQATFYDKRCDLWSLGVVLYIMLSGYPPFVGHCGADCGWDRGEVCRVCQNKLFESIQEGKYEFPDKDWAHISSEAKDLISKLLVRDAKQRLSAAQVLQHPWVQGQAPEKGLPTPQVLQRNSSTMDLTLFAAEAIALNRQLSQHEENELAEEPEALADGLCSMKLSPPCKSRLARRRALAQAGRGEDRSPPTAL
Method: as §1

- percent of control kinase binding to immobilized ligand at 3 µM [1]: 81%
- percent of control kinase binding to immobilized ligand at 3 µM [2]: 98%
- percent of control kinase binding to immobilized ligand at 3 µM [3]: 95%
- percent of control kinase binding to immobilized ligand at 3 µM [4]: 100%
- percent of control kinase binding to immobilized ligand at 3 µM [5]: 92%
- percent of control kinase binding to immobilized ligand at 3 µM [6]: 95%
- percent of control kinase binding to immobilized ligand at 3 µM [7]: 81%
- percent of control kinase binding to immobilized ligand at 3 µM [8]: 100%
- percent of control kinase binding to immobilized ligand at 3 µM [9]: 93%
- percent of control kinase binding to immobilized ligand at 3 µM [10]: 71%
- percent of control kinase binding to immobilized ligand at 3 µM [11]: 100%
- percent of control kinase binding to immobilized ligand at 3 µM [12]: 100%
- percent of control kinase binding to immobilized ligand at 3 µM [13]: 99%
- percent of control kinase binding to immobilized ligand at 3 µM [14]: 85%
- percent of control kinase binding to immobilized ligand at 3 µM [15]: 100%
- percent of control kinase binding to immobilized ligand at 3 µM [16]: 98%
- percent of control kinase binding to immobilized ligand at 3 µM [17]: 100%
- percent of control kinase binding to immobilized ligand at 3 µM [18]: 100%
- percent of control kinase binding to immobilized ligand at 3 µM [19]: 84%
- percent of control kinase binding to immobilized ligand at 3 µM [20]: 80%
- percent of control kinase binding to immobilized ligand at 3 µM [21]: 92%
SMILES: CN(C)CCNC(=O)c1ccc(-c2ccc(-c3ccc(Cl)cc3)n2-c2ccccc2C(F)(F)F)cc1 (single isomer, unassigned) [Atropisomer A-2, 4-[5-(4-chlorophenyl)-1-[2-(trifluoromethyl)phenyl]pyrrol-2-yl]-N-[2-(dimethylamino)ethyl]benzamide]
